Laboratory results published in patent US9771341B2, “Piperazine carbamates and methods of making and using same” (Abide Therapeutics, Inc., priority 2015, dated 2017).

Columns and labels:
FAAH [1] = biological target: T1, FAAH (Mus musculus, UniProt O08914); test: Mouse brain proteomes from inhibitor treated mice, FAAH; type: in vivo; details: 5 mg/kg oral gavage, C57Bl/6J mice, brain proteome 4 h after administration
T1 construct: Proteomes (mouse brain membrane fraction or cell lysates); from tissue; host or cells: mouse brain membrane fraction (or unspecified cell lysates)
T1 sequence (O08914 1-579): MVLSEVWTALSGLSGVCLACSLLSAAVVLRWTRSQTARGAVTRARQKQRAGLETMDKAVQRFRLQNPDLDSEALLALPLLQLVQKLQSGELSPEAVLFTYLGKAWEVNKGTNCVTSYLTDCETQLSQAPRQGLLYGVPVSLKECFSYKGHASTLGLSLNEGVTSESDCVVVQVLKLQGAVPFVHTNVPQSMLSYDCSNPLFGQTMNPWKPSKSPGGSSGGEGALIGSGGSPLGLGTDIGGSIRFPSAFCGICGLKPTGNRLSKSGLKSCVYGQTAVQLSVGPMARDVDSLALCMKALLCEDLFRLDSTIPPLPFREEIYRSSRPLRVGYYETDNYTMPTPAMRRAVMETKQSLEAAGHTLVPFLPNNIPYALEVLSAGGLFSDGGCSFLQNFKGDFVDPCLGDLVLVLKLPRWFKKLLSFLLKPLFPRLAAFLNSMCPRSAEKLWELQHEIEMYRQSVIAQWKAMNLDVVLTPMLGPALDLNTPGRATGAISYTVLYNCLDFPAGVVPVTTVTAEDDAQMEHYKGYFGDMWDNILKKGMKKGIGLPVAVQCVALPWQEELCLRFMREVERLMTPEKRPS
Method: Preparation of Mouse Brain Proteomes from Inhibitor Treated Mice.
Inhibitors were administered to wild-type C57Bl/6J by oral gavage in a vehicle of polyethylene glycol. Each animal was sacrificed 4 h following administration and brain proteomes were prepared and analyzed according to previously established methods (See Niphakis, M. J., et al. (2011) ACS Chem. Neurosci. and Long, J. Z., et al. Nat. Chem. Biol. 5:37-44)

FAAH [2] = biological target: T1, FAAH; test: In vitro competitive activity-based protein profiling (mouse), FAAH; type: biochemical; details: for IC50: mouse brain membrane fraction or cell lysates, 30 min preincubation at 37° C, FP-Rh probe; for inhibition at 1 µM: mouse proteome, in vitro
In short: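 Competitive ABPP: inhibitor exposure (30 min, 37° C) of mouse brain membrane or lysate proteome at 1.0 mg/mL, then labelling with FP-Rh for another 30 min. Activity quantified by in-gel fluorescence of FAAH bands after SDS-PAGE.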

ABHD6 = biological target: T2, ABHD6 (Mus musculus, UniProt Q8R2Y0); test: In vitro competitive activity-based protein profiling (mouse), ABHD6; type: biochemical; details: for inhibition at 1 µM: mouse proteome, in vitro, read-out: % Inhibition at 1 μM ABHD6; for IC50: mouse brain membrane fraction or cell lysates, 30 min preincubation at 37° C, FP-Rh probe
T2 construct: Proteomes (mouse brain membrane fraction or cell lysates); from tissue; host or cells: mouse brain membrane fraction (or unspecified cell lysates)
T2 sequence (Q8R2Y0 1-336): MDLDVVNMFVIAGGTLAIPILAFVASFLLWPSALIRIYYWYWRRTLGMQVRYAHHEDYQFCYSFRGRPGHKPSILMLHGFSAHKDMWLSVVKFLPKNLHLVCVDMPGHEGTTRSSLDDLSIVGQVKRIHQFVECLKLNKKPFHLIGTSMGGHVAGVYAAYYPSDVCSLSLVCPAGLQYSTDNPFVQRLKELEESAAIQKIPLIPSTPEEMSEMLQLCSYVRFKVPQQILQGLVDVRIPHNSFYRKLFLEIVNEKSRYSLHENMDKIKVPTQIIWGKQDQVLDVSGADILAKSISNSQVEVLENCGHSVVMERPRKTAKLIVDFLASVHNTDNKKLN
Method: (§1) In Vitro Competitive Activity-Based Protein Profiling (Mouse).
(§2) Proteomes (mouse brain membrane fraction or cell lysates) (50 μL, 1.0 mg/mL total protein concentration) were preincubated with varying concentrations of inhibitors at 37° C. After 30 min, FP-Rh (1.0 μL, 50 μM in DMSO) was added and the mixture was incubated for another 30 min at 37° C. Reactions were quenched with SDS loading buffer (50 μL-4×) and run on SDS-PAGE.

MAGL = biological target: T3, MAGL (Mus musculus, UniProt O35678); test: In vitro competitive activity-based protein profiling (mouse), MAGL; type: biochemical; details: for inhibition at 1 µM: mouse proteome, in vitro, read-out: % Inhibition at 1 μM MAGL; for IC50: mouse brain membrane fraction or cell lysates, 30 min preincubation at 37° C, FP-Rh probe
T3 construct: Proteomes (mouse brain membrane fraction or cell lysates); from tissue; host or cells: mouse brain membrane fraction (or unspecified cell lysates)
T3 sequence (O35678 1-303): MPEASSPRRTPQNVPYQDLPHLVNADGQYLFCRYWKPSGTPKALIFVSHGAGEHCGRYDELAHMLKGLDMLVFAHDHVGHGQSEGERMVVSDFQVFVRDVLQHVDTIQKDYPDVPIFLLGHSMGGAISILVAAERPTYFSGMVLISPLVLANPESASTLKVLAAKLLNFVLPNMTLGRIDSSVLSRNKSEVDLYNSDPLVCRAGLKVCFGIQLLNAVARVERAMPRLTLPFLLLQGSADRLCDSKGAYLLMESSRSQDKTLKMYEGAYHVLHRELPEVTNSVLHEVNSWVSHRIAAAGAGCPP
Method: as §1, §2

Row | inhibition at 5 mg/kg (FAAH [1]) | IC50 (FAAH [2]) | inhibition at 1 µM (FAAH [2]) | inhibition at 1 µM (ABHD6) | IC50 (ABHD6) | inhibition at 1 µM (MAGL) | IC50 (MAGL) | SMILES
1 | < 25% | > 1000 nM | – | – | – | – | – | O=C(OC(C(F)(F)F)C(F)(F)F)N1CCN(Cc2ccc(Cl)cc2N2CC3CCC(C2)O3)CC1 [Example 30, 1,1,1,3,3,3-hexafluoropropan-2-yl 4-(2-(8-oxa-3-azabicyclo[3.2.1]octan-3-yl)-4-chlorobenzyl)piperazine-1-carboxylate]
2 | < 25% | > 1000 nM | < 25% | – | – | – | – | O=C(OC(C(F)(F)F)C(F)(F)F)N1CCN(Cc2ccc(C(F)(F)F)cc2N2CC3CCC(C2)O3)CC1 [Example 59, 1,1,1,3,3,3-hexafluoropropan-2-yl 4-(2-(8-oxa-3-azabicyclo[3.2.1]octan-3-yl)-4-(trifluoromethyl)benzyl)piperazine-1-carboxylate]
3 | – | > 1000 nM | < 25% | > 75% | 100 to 1000 nM | > 75% | < 100 nM | O=C(OC(C(F)(F)F)C(F)(F)F)N1CCN(Cc2ccc(C(F)(F)F)c(N3CCC(CO)CC3)c2)CC1 [Example 82, 1,1,1,3,3,3-hexafluoropropan-2-yl 4-(3-(4-(hydroxymethyl)piperidin-1-yl)-4-(trifluoromethyl)benzyl)piperazine-1-carboxylate]
4 | – | > 1000 nM | < 25% | < 25% | 100 to 1000 nM | > 75% | < 100 nM | O=C(O)C1CN(c2cc(CN3CCN(C(=O)OC(C(F)(F)F)C(F)(F)F)CC3)ccc2C(F)(F)F)CCO1 (centres unmarked) [Example 83, 4-(5-((4-(((1,1,1,3,3,3-hexafluoropropan-2-yl)oxy)carbonyl)piperazin-1-yl)methyl)-2-(trifluoromethyl)phenyl)morpholine-2-carboxylic acid]
5 | – | > 1000 nM | < 25% | > 75% | < 100 nM | > 75% | < 100 nM | O=C(O)C(=O)c1cc(CN2CCN(C(=O)OC(C(F)(F)F)C(F)(F)F)CC2)ccc1C(F)(F)F [Example 84, 2-(5-((4-(((1,1,1,3,3,3-hexafluoropropan-2-yl)oxy)carbonyl)piperazin-1-yl)methyl)-2-(trifluoromethyl)phenyl)-2-oxoacetic acid]
6 | – | > 1000 nM | < 25% | > 75% | 100 to 1000 nM | 25 to 75% | 100 to 1000 nM | O=C(O)C1CCN(c2cc(CN3CCN(C(=O)OC(C(F)(F)F)C(F)(F)F)CC3)ccc2C(F)(F)F)CC1 [Example 85, 1-(5-((4-(((1,1,1,3,3,3-hexafluoropropan-2-yl)oxy)carbonyl)piperazin-1-yl)methyl)-2-(trifluoromethyl)phenyl)piperidine-4-carboxylic acid]
7 | – | > 1000 nM | < 25% | > 75% | 100 to 1000 nM | > 75% | < 100 nM | CCOC(=O)C1CCCN1c1cc(CN2CCN(C(=O)OC(C(F)(F)F)C(F)(F)F)CC2)cc(C(F)(F)F)c1 (centres unmarked) [Example 87, 1,1,1,3,3,3-hexafluoropropan-2-yl 4-(3-(2-(ethoxycarbonyl)pyrrolidin-1-yl)-5-(trifluoromethyl)benzyl)piperazine-1-carboxylate]
8 | – | > 1000 nM | < 25% | 25 to 75% | 100 to 1000 nM | > 75% | 100 to 1000 nM | O=C(OC(C(F)(F)F)C(F)(F)F)N1CCN(Cc2cc(N3CCCC3CO)cc(C(F)(F)F)c2)CC1 (centres unmarked) [Example 88, 1,1,1,3,3,3-hexafluoropropan-2-yl 4-(3-(2-(hydroxymethyl)pyrrolidin-1-yl)-5-(trifluoromethyl)benzyl)piperazine-1-carboxylate]
9 | – | > 1000 nM | < 25% | > 75% | < 100 nM | > 75% | 100 to 1000 nM | O=C(O)C1CCN(c2cc(CN3CCN(C(=O)OC(C(F)(F)F)C(F)(F)F)CC3)cc(C(F)(F)F)c2)C1 (centres unmarked) [Example 89, 1-(3-((4-(((1,1,1,3,3,3-hexafluoropropan-2-yl)oxy)carbonyl)piperazin-1-yl)methyl)-5-(trifluoromethyl)phenyl)pyrrolidine-3-carboxylic acid]
10 | – | > 1000 nM | < 25% | > 75% | 100 to 1000 nM | > 75% | < 100 nM | O=C(OC(C(F)(F)F)C(F)(F)F)N1CCN(Cc2cc(N3CCC(CO)C3)cc(C(F)(F)F)c2)CC1 (centres unmarked) [Example 90, 1,1,1,3,3,3-hexafluoropropan-2-yl 4-(3-(3-(hydroxymethyl)pyrrolidin-1-yl)-5-(trifluoromethyl)benzyl)piperazine-1-carboxylate]
11 | – | > 1000 nM | < 25% | > 75% | 100 to 1000 nM | > 75% | 100 to 1000 nM | O=C(OC(C(F)(F)F)C(F)(F)F)N1CCN(Cc2cc(N3CCC(CO)CC3)cc(C(F)(F)F)c2)CC1 [Example 91, 1,1,1,3,3,3-hexafluoropropan-2-yl 4-(3-(4-(hydroxymethyl)piperidin-1-yl)-5-(trifluoromethyl)benzyl)piperazine-1-carboxylate]
12 | – | > 1000 nM | < 25% | < 25% | > 1000 nM | > 75% | < 100 nM | O=C(O)C1CN(c2cc(CN3CCN(C(=O)OC(C(F)(F)F)C(F)(F)F)CC3)cc(C(F)(F)F)c2)CCO1 (centres unmarked) [Example 92, 4-(3-((4-(((1,1,1,3,3,3-hexafluoropropan-2-yl)oxy)carbonyl)piperazin-1-yl)methyl)-5-(trifluoromethyl)phenyl)morpholine-2-carboxylic acid]
13 | – | > 1000 nM | < 25% | > 75% | 100 to 1000 nM | > 75% | < 100 nM | O=C(O)C(=O)c1cc(CN2CCN(C(=O)OC(C(F)(F)F)C(F)(F)F)CC2)cc(C(F)(F)F)c1 [Example 93, 2-(3-((4-(((1,1,1,3,3,3-hexafluoropropan-2-yl)oxy)carbonyl)piperazin-1-yl)methyl)-5-(trifluoromethyl)phenyl)-2-oxoacetic acid]
14 | – | > 1000 nM | < 25% | > 75% | < 100 nM | 25 to 75% | 100 to 1000 nM | O=C(O)C1CCN(c2cc(CN3CCN(C(=O)OC(C(F)(F)F)C(F)(F)F)CC3)cc(C(F)(F)F)c2)CC1 [Example 94, 1-(3-((4-(((1,1,1,3,3,3-hexafluoropropan-2-yl)oxy)carbonyl)piperazin-1-yl)methyl)-5-(trifluoromethyl)phenyl)piperidine-4-carboxylic acid]

Row | SMILES | inhibition at 5 mg/kg (FAAH [1]) | IC50 (FAAH [2]) | inhibition at 1 µM (FAAH [2]) | inhibition at 1 µM (ABHD6) | IC50 (ABHD6) | inhibition at 1 µM (MAGL) | IC50 (MAGL)
15 | O=C(OC(C(F)(F)F)C(F)(F)F)N1CCN(Cc2ccc(C(F)(F)F)cc2N2C3CCC2COC3)CC1 [Example 58, 1,1,1,3,3,3-hexafluoropropan-2-yl 4-(2-(3-oxa-8-azabicyclo[3.2.1]octan-8-yl)-4-(trifluoromethyl)benzyl)piperazine-1-carboxylate] | < 25% | > 1000 nM | < 25% | – | – | – | –
